Patent publication US20080063720A1, “Delivery System” (priority 2004, published 2008)

Key:
[1] = test system: THP-1 differentiated macrophages; test: Brefeldin A effect on intranuclear accumulation of quantum dots; assay type: cell-based, human; settings: Brefeldin A 20 μg/ml for 30 min, washed out before particles were added
Procedure: In the studies referred to in FIGS. 1-10, Human THP-1 monocytes, the transformed epithelial cell lines HT-29, HCT-116 and T cell lymphoma cell line HUT-78 were obtained from the European Collection of Animal Cell Cultures (ECACC, Salisbury, UK). Cells were grown in RPMI 1640 medium supplemented with 10% heat-inactivated fetal bovine serum (FBS), 2 mM L-glutamine/L, 100 μg penicillin/ml and […], and incubated at 37° C. in 5% CO2. To induce monocyte to macrophage differentiation, THP-1 cells were cultured in the presence of 100 ng/ml PMA for 72 h.
Prior to incubation with CdTe particles THP-1 differentiated macrophages were incubated with the Golgi complex disrupter Brefeldin A for 30 min at 20 μg/ml. Following a wash out, green 2.2 nm size CdTe particles were added to the cells.

[2] = test system: human primary macrophage cells; test: Thapsigargin effect on intranuclear accumulation of quantum dots; assay type: cell-based; settings: thapsigargin 100 mM for 30 min, washed out before incubation with particles
Procedure: Nuclear import inhibitor thapsigargin ([…]) was added to the cells for 30 min and subsequently washed out with pre-warmed culture medium prior to incubation with 2.2 nm size (green emitting) CdTe particles.

Row | Compound | effect on distribution and intranuclear accumulation of 2.2 nm green CdTe particles [1] | effect on intranuclear accumulation of 2.2 nm green CdTe particles [2]
1 | C[C@H]1CCC/C=C/[C@@H]2C[C@H](O)C[C@H]2[C@H](O)/C=C/C(=O)O1 [brefeldin A, Brefeldin A] | dispersion of quantum dots and partial block of intranuclear accumulation | –
2 | C/C=C(/C)C(=O)O[C@H]1C(C)=C2[C@H]([C@@H]1OC(=O)CCCCCCC)[C@@](C)(OC(C)=O)C[C@H](OC(=O)CCC)[C@@]1(O)[C@H]2OC(=O)[C@@]1(C)O [thapsigargin] | – | blockade of intranuclear accumulation
